Tests used:
Type in all cases: in vivo
[1] = system: Morning Glory; assay: post-emergence herbicide test; details: 0.25 lb/A; for inhibition at 280.212 g/ha: Ipomoea, post-emergence, read-out: % plant inhibition
Outline: (§1)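 Two- to three-week-old plants, greenhouse-grown in compacted topsoil, received candidate chemical by atomizer spray at 1870 L/Ha. Scored as percent inhibition.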

[2] = system: Wild Oats; assay: post-emergence herbicide test; details: 0.25 lb/A; for inhibition at 280.212 g/ha: Avena fatua, post-emergence, read-out: % plant inhibition
Outline: as §1

[3] = system: Bedstraw Catchweed; assay: post-emergence herbicide test; details: 0.25 lb/A; for inhibition at 280.212 g/ha: Galium aparine, post-emergence, read-out: % plant inhibition
Outline: as §1

[4] = system: Corn; assay: post-emergence herbicide test; details: 0.25 lb/A; for inhibition at 280.212 g/ha: Zea mays, post-emergence, read-out: % plant inhibition
Outline: as §1

[5] = system: Green Foxtail; assay: post-emergence herbicide test; details: Setaria viridis, post-emergence, 0.25 lb/A; read-out: % plant inhibition
Outline: as §1

[6] = system: Blackgrass; assay: post-emergence herbicide test; details: 0.25 lb/A; for inhibition at 280.212 g/ha: Alopecurus myosuroides, post-emergence, read-out: % plant inhibition
Outline: as §1

[7] = system: Seedling Johnsongrass; assay: post-emergence herbicide test; details: Sorghum halepense, post-emergence, 0.25 lb/A; read-out: % plant inhibition
Outline: as §1

[8] = system: Velvetleaf; assay: post-emergence herbicide test; details: Abutilon theophrasti, post-emergence, 0.25 lb/A; read-out: % plant inhibition
Outline: as §1

[9] = system: Cocklebur; assay: post-emergence herbicide test; details: Xanthium strumarium, post-emergence, 0.25 lb/A; read-out: % plant inhibition
Outline: as §1

[10] = system: Rape; assay: post-emergence herbicide test; details: post-emergence, 0.25 lb/A; read-out: % plant inhibition
Outline: as §1

[11] = system: Barnyardgrass; assay: post-emergence herbicide test; details: Echinochloa crus-galli, post-emergence, 0.25 lb/A; read-out: % plant inhibition
Outline: as §1

[12] = system: Wheat; assay: post-emergence herbicide test; details: Triticum aestivum, post-emergence, 0.25 lb/A; read-out: % plant inhibition
Outline: as §1

[13] = system: Birdseye Speedwell; assay: post-emergence herbicide test; details: post-emergence, 0.25 lb/A; read-out: % plant inhibition
Outline: as §1

[14] = system: Downy Brome; assay: post-emergence herbicide test; details: 0.25 lb/A; for inhibition at 280.212 g/ha: Bromus tectorum, post-emergence, read-out: % plant inhibition
Outline: as §1

[15] = system: Soybean; assay: post-emergence herbicide test; details: 0.25 lb/A; for inhibition at 280.212 g/ha: Glycine max, post-emergence, read-out: % plant inhibition
Outline: as §1

[16] = system: Giant Foxtail; assay: post-emergence herbicide test; details: 0.25 lb/A; for inhibition at 280.212 g/ha: Setaria faberi, post-emergence, read-out: % plant inhibition
Outline: as §1

[17] = system: Common Chickweed; assay: post-emergence herbicide test; details: post-emergence, 0.25 lb/A; read-out: % plant inhibition
Outline: as §1

[18] = system: Morning Glory; assay: pre-emergence herbicide test; details: Ipomoea, pre-emergence, 0.25 lb/A; read-out: % plant inhibition
Outline: (§2)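 Seeds were sown on compacted topsoil in pans and covered with a topsoil layer carrying a known amount of active ingredient in acetone or water, applied before or after covering. Pans were bottom-watered on a greenhouse bench, and % inhibition was scored about 14 days after seeding and treatment.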

[19] = system: Wild Oats; assay: pre-emergence herbicide test; details: 0.25 lb/A; for inhibition at 280.212 g/ha: Avena fatua, pre-emergence, read-out: % plant inhibition
Outline: as §2

[20] = system: Bedstraw Catchweed; assay: pre-emergence herbicide test; details: 0.25 lb/A; for inhibition at 280.212 g/ha: Galium aparine, pre-emergence, read-out: % plant inhibition
Outline: as §2

[21] = system: Corn; assay: pre-emergence herbicide test; details: 0.25 lb/A; for inhibition at 280.212 g/ha: Zea mays, pre-emergence, read-out: % plant inhibition
Outline: as §2

[22] = system: Green Foxtail; assay: pre-emergence herbicide test; details: Setaria viridis, pre-emergence; 0.25 lb/A; read-out: % plant inhibition
Outline: as §2

[23] = system: Blackgrass; assay: pre-emergence herbicide test; details: 0.25 lb/A; for inhibition at 280.212 g/ha: Alopecurus myosuroides, pre-emergence, read-out: % plant inhibition
Outline: as §2

[24] = system: Seedling Johnsongrass; assay: pre-emergence herbicide test; details: Sorghum halepense, pre-emergence, 0.25 lb/A; read-out: % plant inhibition
Outline: as §2

[25] = system: Velvetleaf; assay: pre-emergence herbicide test; details: Abutilon theophrasti, pre-emergence, 0.25 lb/A; read-out: % plant inhibition
Outline: as §2

[26] = system: Cocklebur; assay: pre-emergence herbicide test; details: 0.25 lb/A; for inhibition at 280.212 g/ha: Xanthium strumarium, pre-emergence, read-out: % plant inhibition
Outline: as §2

[27] = system: Rape; assay: pre-emergence herbicide test; details: pre-emergence, 0.25 lb/A; read-out: % plant inhibition
Outline: as §2

[28] = system: Barnyardgrass; assay: pre-emergence herbicide test; details: Echinochloa crus-galli, pre-emergence, 0.25 lb/A; read-out: % plant inhibition
Outline: as §2

[29] = system: Wheat; assay: pre-emergence herbicide test; details: Triticum aestivum, pre-emergence, 0.25 lb/A; read-out: % plant inhibition
Outline: as §2

[30] = system: Birdseye Speedwell; assay: pre-emergence herbicide test; details: pre-emergence, 0.25 lb/A; read-out: % plant inhibition
Outline: as §2

[31] = system: Downy Brome; assay: pre-emergence herbicide test; details: Bromus tectorum, pre-emergence, 0.25 lb/A; read-out: % plant inhibition
Outline: as §2

[32] = system: Soybean; assay: pre-emergence herbicide test; details: 0.25 lb/A; for inhibition at 280.212 g/ha: Glycine max, pre-emergence, read-out: % plant inhibition
Outline: as §2

[33] = system: Giant Foxtail; assay: pre-emergence herbicide test; details: Setaria faberi, pre-emergence, 0.25 lb/A; read-out: % plant inhibition
Outline: as §2

[34] = system: Common Chickweed; assay: pre-emergence herbicide test; details: pre-emergence, 0.25 lb/A; read-out: % plant inhibition
Outline: as §2

Row | SMILES | inhibition at 280.212 g/ha [5] [%] | inhibition at 280.212 g/ha [7] [%] | inhibition at 280.212 g/ha [8] [%] | inhibition at 280.212 g/ha [9] [%] | inhibition at 280.212 g/ha [10] [%] | inhibition at 280.212 g/ha [11] [%] | inhibition at 280.212 g/ha [12] [%] | inhibition at 280.212 g/ha [13] [%] | inhibition at 280.212 g/ha [17] [%] | inhibition at 280.212 g/ha [18] [%] | inhibition at 280.212 g/ha [22] [%] | inhibition at 280.212 g/ha [24] [%] | inhibition at 280.212 g/ha [25] [%] | inhibition at 280.212 g/ha [27] [%] | inhibition at 280.212 g/ha [28] [%] | inhibition at 280.212 g/ha [29] [%] | inhibition at 280.212 g/ha [30] [%] | inhibition at 280.212 g/ha [31] [%] | inhibition at 280.212 g/ha [33] [%] | inhibition at 280.212 g/ha [34] [%] | other results
1 | C=CCOC(=O)c1cc(-c2nn(C)c(C(F)(F)F)c2C)c(F)cc1Cl [Compound 54] | 98 | 90 | 100 | 99 | 75 | 95 | 16 | 100 | 90 | 40 | 100 | 99 | 100 | 0 | 100 | 5 | 98 | 75 | 99 | 90 | inhibition at 280.212 g/ha [1]: 80%; inhibition at 280.212 g/ha [2]: 80%; inhibition at 280.212 g/ha [3]: 98%; inhibition at 280.212 g/ha [4]: 35%; inhibition at 280.212 g/ha [6]: 30%; inhibition at 280.212 g/ha [14]: 70%; inhibition at 280.212 g/ha [15]: 80%; inhibition at 280.212 g/ha [16]: 90%; inhibition at 280.212 g/ha [19]: 30%; inhibition at 280.212 g/ha [20]: 80%; inhibition at 280.212 g/ha [21]: 10%; inhibition at 280.212 g/ha [23]: 35%; inhibition at 280.212 g/ha [26]: 35%; inhibition at 280.212 g/ha [32]: 5%
2 | Cc1c(-c2cc(C(=O)OCCC(C)C)c(Cl)cc2F)nn(C)c1C(F)(F)F [Compound 51] | 80 | 85 | 100 | 85 | 20 | 60 | 12 | 98 | 75 | 15 | 100 | 80 | 90 | 5 | 50 | 0 | 90 | 35 | 90 | 70 | % plant inhibition [1]: 35%; % plant inhibition [2]: 55%; % plant inhibition [3]: 40%; % plant inhibition [4]: 7%; % plant inhibition [6]: 45%; % plant inhibition [14]: 45%; % plant inhibition [15]: 65%; % plant inhibition [16]: 85%; % plant inhibition [19]: 15%; % plant inhibition [20]: 55%; % plant inhibition [21]: 8%; % plant inhibition [23]: 20%; % plant inhibition [26]: 0%; % plant inhibition [32]: 3%
3 | Cn1nc(-c2cc(C(=O)O)c(Cl)cc2F)c(C=O)c1C(F)(F)F [Compound 3, 2-Chloro-4-fluoro-5-[4-formyl-1-methyl-5-(trifluoromethyl)-1H-pyrazol-3-yl]benzoic acid] | 10 | 0 | 85 | 65 | 10 | 0 | 8 | 75 | 25 | 60 | 30 | 25 | 25 | 5 | 15 | 0 | 0 | 0 | 5 | 0 | inhibition at 280.212 g/ha [1]: 25%; inhibition at 280.212 g/ha [2]: 5%; inhibition at 280.212 g/ha [3]: 15%; inhibition at 280.212 g/ha [4]: 2%; inhibition at 280.212 g/ha [6]: 0%; inhibition at 280.212 g/ha [14]: 0%; inhibition at 280.212 g/ha [15]: 15%; inhibition at 280.212 g/ha [16]: 0%; inhibition at 280.212 g/ha [19]: 5%; inhibition at 280.212 g/ha [20]: 5%; inhibition at 280.212 g/ha [21]: 0%; inhibition at 280.212 g/ha [23]: 5%; inhibition at 280.212 g/ha [26]: 5%; inhibition at 280.212 g/ha [32]: 20%
